Results published in paper PMC11200018 (2024).

Tests used:
[1] = system: 32BrTelQD (DNA, G4, 8-bromo-2'-deoxyguanosine at 32) GGGCGCGAAGCATTCGCGGGGTTAGGGTTAGGG; experiment: NMR titration and induced CD; conditions: 120 mM K+; 120 mM K+ buffer, pH 7.0; incomplete refolding, polymorphic complex
[2] = system: TelQD (DNA, G4) GGGCGCGAAGCATTCGCGGGGTTAGGGTTAGGG; experiment: NMR solution structure; conditions: 120 mM K+; 20 mM potassium phosphate, 100 mM KCl, pH 7.0, 25 °C; refolds to (3+1) hybrid-2
[3] = system: TelQD31 (DNA, G4) GGGCGCGAAGCATTCGCGGGGTTAGGGTGGG; experiment: NMR titration; conditions: 120 mM K+; 120 mM K+ buffer, pH 7.0; binding at quadruplex-duplex junction

Measured: binding

C[n+]1cc(NC(=O)c2ccc3ccc4ccc(C(=O)Nc5cc6ccccc6[n+](C)c5)nc4c3n2)cc2ccccc21
yes: all assays above
